For data set [1], the target named is Wild type H5N1 NA (Influenza A virus, UniProt Q6DPL2). The data set is described as follows: biochemical. The format is biochemical.
Data set [2] addresses Bac-NA^WT H1N1 (Influenza A virus, UniProt P03470). Briefly: biochemical.
Data set [3] addresses Wild type H1N1 NA (Influenza A virus, UniProt P03470). Briefly: biochemical.
The subject of data set [4] is Influenza A virus (A/WSN/33) H1N1. The data set is described as follows: microbe, parasite or virus in culture. In kind it is cell-based. Conditions: for IC50: read-out: IC50 H1N1 (concentration to reduce the CPE of the virus by 50%).
Data set [5] deals with NA. Conditions: cited from earlier work.
The nature of data set [6]: in vitro. The conditions noted are these: dog.

Each structure is given as a SMILES string. “And” between values parts separate entries of the source, which are not always exact repeats. Identical values can stand only once. Like-named read-outs stand apart in the source and are kept apart here. Bounds are passed on as bounds.

Sequence of Wild type H1N1 NA (P03470 whole entry, looked up): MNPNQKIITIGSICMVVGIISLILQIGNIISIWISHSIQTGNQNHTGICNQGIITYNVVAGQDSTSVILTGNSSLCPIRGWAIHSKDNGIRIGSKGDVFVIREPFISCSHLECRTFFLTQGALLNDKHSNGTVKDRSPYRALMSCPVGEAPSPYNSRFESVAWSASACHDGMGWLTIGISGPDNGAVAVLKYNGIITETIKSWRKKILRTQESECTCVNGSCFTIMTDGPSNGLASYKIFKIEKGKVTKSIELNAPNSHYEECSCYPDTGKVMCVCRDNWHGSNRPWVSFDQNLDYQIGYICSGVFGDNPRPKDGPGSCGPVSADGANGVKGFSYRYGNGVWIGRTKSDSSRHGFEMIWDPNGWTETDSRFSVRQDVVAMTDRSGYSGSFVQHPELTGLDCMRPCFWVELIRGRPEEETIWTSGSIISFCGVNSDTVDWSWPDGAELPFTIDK
Sequence of Bac-NA^WT H1N1 (P03470 whole entry, looked up): as above
Sequence of Wild type H5N1 NA (Q6DPL2 whole entry, looked up): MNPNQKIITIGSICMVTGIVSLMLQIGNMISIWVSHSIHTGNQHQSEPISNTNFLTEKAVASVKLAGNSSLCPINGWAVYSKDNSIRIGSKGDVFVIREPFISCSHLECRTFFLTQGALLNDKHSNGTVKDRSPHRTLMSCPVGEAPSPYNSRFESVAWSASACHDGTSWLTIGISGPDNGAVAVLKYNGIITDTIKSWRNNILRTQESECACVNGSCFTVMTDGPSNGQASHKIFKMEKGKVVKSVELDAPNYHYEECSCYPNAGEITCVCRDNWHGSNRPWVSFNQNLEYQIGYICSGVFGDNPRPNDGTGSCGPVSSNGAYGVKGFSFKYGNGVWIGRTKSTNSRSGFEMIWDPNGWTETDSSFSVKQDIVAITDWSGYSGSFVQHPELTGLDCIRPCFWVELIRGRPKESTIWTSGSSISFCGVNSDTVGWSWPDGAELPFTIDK

With `CC1OC(OC2CC(O)C3(CO)C4C(O)CC5(C)C(C6COC(O)C6)CCC5(O)C4CCC3(O)C2)C(O)C(O)C1O` (stereo not drawn) [BPR1P0003S0], the IC50 in data set [1] was 2.62 ± 0.96 µM; in data set [2] it was 2.18 ± 0.03 µM; in data set [3] (NA inhibition, IC50 H1N1), 37.3 ± 13.4 µM.

Take `CC12CCC(O)CC1CCC1C2CC(O)C2(C)C(C3=CC(=O)OC3)CCC12O` (stereo not drawn) [BPR1P0007S0]: the IC50 in data set [1] came out at 2.49 ± 1.43 µM; in data set [2], 1.79 ± 0.01 µM; in data set [3] (NA inhibition, IC50 H1N1), 36.5 ± 5.02 µM.

On to `CC12CCC(O)CC1CCC1C2CCC2(C)C(C3=CC(=O)OC3)CCC12O` (stereo not drawn) [BPR1P0008S0], for which the IC50 in data set [1] was determined as 2.56 ± 0.2 µM; in data set [2] it was 2 µM; in data set [3] (NA inhibition, IC50 H1N1) it was 31.4 ± 7.33 µM.

Turning to `CCC(CC)O[C@@H]1C=C(C(=O)O)C[C@H](N)[C@H]1NC(C)=O` [GS4071, oseltamivir carboxylate, reference compound], the IC50 was 0.02 ± 0.0031 µM in data set [4] and […] in data set [5].

Consider `O=C(Nc1ccc2c(O)cc(S(=O)(=O)O)cc2c1)Nc1ccc2c(O)cc(S(=O)(=O)O)cc2c1` [NSC45174], for which the IC50 in data set [4] (Influenza A virus, MDCK) is 36.5 µM; in data set [4], 36.5 ± 1.19 µM; in data set [1] it was 16.7 ± 1.67 µM; in data set [1] (read-out: IC50 Wild type H5N1) it was below 20 µM; in data set [3] (IC50 Wild type H1N1) it was < 10 µM and 5.29 µM. Further, the CC50 in data set [6] was above 100 µM.

Take `O=C(Nc1ccc2c(O)c(/N=N/c3ccc4c(O)cc(S(=O)(=O)O)cc4c3)c(S(=O)(=O)O)cc2c1)c1ccccc1` [NSC45609]: the IC50 in data set [4] (Influenza A virus, MDCK) was 16.5 µM; in data set [4], 16.5 ± 0.63 µM; in data set [1], 13 ± 0.78 µM; in data set [1] (read-out: IC50 Wild type H5N1) it was below 20 µM; in data set [3] (IC50 Wild type H1N1) it was < 10 µM and 3.67 µM. The CC50 in data set [6] is above 100 µM.

Take `Nc1ccc2c(O)c(/N=N/c3ccc4c(O)cc(S(=O)(=O)O)cc4c3)c(S(=O)(=O)O)cc2c1` [NSC162535]: the “concentration showing consistent blue color (living cells) in CPE assay” value in data set [4] was at least 50 µM. Besides, the IC50 in data set [4] (Influenza A virus, MDCK) is 61.5 µM; in data set [4] it was 61.45 ± 0.17 µM; in data set [1] it was 18.7 ± 1.89 µM; in data set [1] (read-out: IC50 Wild type H5N1) it was below 20 µM; in data set [3] (IC50 Wild type H1N1), < 10 µM and 4.49 µM. Further, in data set [6], the CC50 is above 100 µM.

Values taken from PMC5615050 (Scientific Reports, 2017).
